From ChEMBL document CHEMBL1138817, “Synthesis and cytotoxic activity of 3-O-acyl/3-hydrazine /2-bromo/20,29-dibromo betulinic acid derivatives” (2004)
In brackets after ≈: the same amount, converted by molar mass.

Columns and labels:
Format in all cases: functional
Jurkat = assay: Cytotoxic activity against human JurkatE6.1 cell line was measured after 72 h using MTT assay; conditions: Homo sapiens, Jurkat, 72 h; read-out: ED50 (the source's name)
PA-1 = assay: Cytotoxic activity against human PA-1 cell line was measured after 72 hr using MTT assay; conditions: Homo sapiens, PA-1, 72 h; read-out: ED50 (the source's name)
L132 = assay: Cytotoxic activity against human L132 cell line was measured after 72 hr using MTT assay; conditions: L132, 72 h, read-out: ED50 (the source's name)
CCRF-CEM = assay: Cytotoxic activity against human CEM.CM3 cell line was measured after 72 hr using MTT assay; conditions: Homo sapiens, CCRF-CEM, 72 h; read-out: ED50 (the source's name)
BRISTOL8 = assay: Cytotoxic activity against human BRISTOL8 cell line was measured after 72 hr using MTT assay; conditions: Homo sapiens, BRISTOL8, 72 h; read-out: ED50 (the source's name)
U-937 = assay: Cytotoxic activity against human U937 cell line was measured after 72 hr using MTT assay; conditions: Homo sapiens, U-937, 72 h; read-out: ED50 (the source's name)
DU-145 = assay: Cytotoxic activity against human DU145 cell line was measured after 72 hr using MTT assay; conditions: Homo sapiens, DU-145, 72 h; read-out: ED50 (the source's name)
A549 = assay: Cytotoxic activity against human A549 cell line was measured after 72 hr using MTT assay; conditions: A549, 72 h, read-out: ED50 (the source's name)
MOLT-4 = assay: Cytotoxic activity against human MOLT-4 cell line was measured after 72 hr using MTT assay; conditions: Homo sapiens, MOLT-4, 72 h; read-out: ED50 (the source's name)

CC(C)[C@@H]1CC[C@]2(C(=O)O)CC[C@]3(C)C(CCC4[C@@]5(C)CC/C(=N\O)C(C)(C)C5CC[C@]43C)C12 (some centres undefined)
EC50 (Jurkat): 1.8 µg/mL (≈ 3.82 µM) | EC50 (PA-1): 0.7 µg/mL (≈ 1.48 µM) | EC50 (L132): 1.5 µg/mL (≈ 3.18 µM) | EC50 (CCRF-CEM): 2.6 µg/mL (≈ 5.51 µM) | EC50 (BRISTOL8): 1.6 µg/mL (≈ 3.39 µM) | EC50 (U-937): 2.4 µg/mL (≈ 5.09 µM) | EC50 (DU-145): 1.1 µg/mL (≈ 2.33 µM) | EC50 (A549): > 1.8 µg/mL | EC50 (MOLT-4): 2.1 µg/mL (≈ 4.45 µM)
